Data: paper PMC5590075, “Synthesis, Antimicrobial, and Antioxidant Activities of Chalcogen-Containing Nitrone Derivatives from (R)-citronellal” (Medicines, 2017)
≈ marks a conversion by molar mass, not a printed value.

Tests used:
[1] = set-up: method as in doi:10.1016/j.foodcont.2011.06.017; conditions: cited from earlier work
[2] = set-up: method as in doi:10.1016/j.foodcont.2011.06.017; conditions: cited from earlier work; remark: listed apart in the source
[3] = set-up: method as in doi:10.1016/j.foodcont.2011.06.017; conditions: cited from earlier work; remark: listed apart in the source
S. dysenteriae = test system: S. dysenteriae; set-up: method as in doi:10.1016/j.lwt.2014.05.036; conditions: cited from earlier work
L. monocytogenes = test system: L. monocytogenes; set-up: method as in doi:10.1016/j.lwt.2014.05.036; conditions: cited from earlier work
E. coli = test system: E. coli; set-up: method as in doi:10.1016/j.lwt.2014.05.036; conditions: cited from earlier work
S. Typhimurium = test system: S. Typhimurium; set-up: method as in doi:10.1016/j.lwt.2014.05.036; conditions: cited from earlier work
P. fluorescens = test system: P. fluorescens; set-up: method as in doi:10.1016/j.lwt.2014.05.036; conditions: cited from earlier work
S. aureus = test system: S. aureus; set-up: method as in doi:10.1016/j.lwt.2014.05.036; conditions: cited from earlier work
[4] = test system: Listeria monocytogenes ATCC 7644; experiment: agar disk diffusion test; format: cell-based; conditions: Listeria monocytogenes, ATCC7644; L. monocytogenes, 1.0 × 10^8 CFU.mL^−1; 20 μL compound diluted in DMSO (1:1) per 6 mm disc; streptomycin 10 µg; mean of two repetitions
Source text: (§1) To evaluate the antimicrobial potential of the synthesized compounds, the following reference strains of bacteria, that are economically important in foods, were employed: Gram-positive Listeria monocytogenes ATCC 7644, Staphylococcus aureus ATCC 25923, and Bacillus cereus ATCC 11778; Gram-negative Salmonella Typhimurium ATCC 14028, Escherichia coli O157: H7 NCTC 12900 and the clinically important Pseudomonas aeruginosa ATCC 15442.
(§2) The antimicrobial activity assay using the disk diffusion test was realized using the methodology that is recommended by the Clinical Laboratory Standards Institute (CLSI). The determination of the minimum inhibitory concentration (MIC) and minimum bactericidal concentration (MBC) was performed using the macro dilution tube method, in accordance with Rota et al., with modifications. Details of these assays are provided in the Supplemental Material. […]
(§3) 2.1. Antimicrobial activity assay using the disk diffusion test
(§4) The disk diffusion test followed the methodology recommended by the Clinical Laboratory Standards Institute CLSI [4]. The inoculum was standardized by standard McFarland to the concentration of 10^8 CFU.mL−1 and spread on the surface of a Petri dish containing Mueller‐Hinton (MH) agar. Then, the paper disc (6 mm) was put on a plate impregnated with 20 μL of the testing compound previously diluted in DMSO (1:1) and incubated at 37 °C for 24 hours. Zone of inhibition ≥20 mm were considered as strong inhibition, <20–12 mm as moderate inhibition, and <12 mm no inhibition. A positive control with streptomycin antibiotic (10 μg) and a negative one, with paper discs impregnated with distilled water, were used […]
(§5) 2.4. Radical Scavenging Activity […]
(§6) The ABTS radical scavenging activity was determined according to the method described by Erel. Different concentrations of compounds 5a–d and 10 (10–500 μ M) were mixed with the ABTS+ solution, and the decrease in the absorbance at 734 nm was recorded.

[5] = test system: Salmonella Typhimurium ATCC 14028; experiment: agar disk diffusion test; format: cell-based; conditions: Salmonella enterica; S. Typhimurium, 1.0 × 10^8 CFU.mL^−1; 20 μL compound diluted in DMSO (1:1) per 6 mm disc; streptomycin 10 µg; mean of two repetitions
Source text: as §1, §2, §3, §4, §5, §6

[6] = test system: Bacillus cereus ATCC 11778; experiment: agar disk diffusion test; format: cell-based; conditions: Bacillus cereus, ATCC11778; B. cereus, 1.0 × 10^8 CFU.mL^−1; 20 μL compound diluted in DMSO (1:1) per 6 mm disc; streptomycin 10 µg; mean of two repetitions
Source text: as §1, §2, §3, §4, §5, §6

[7] = test system: Staphylococcus aureus ATCC 25923; experiment: agar disk diffusion test; format: cell-based; conditions: Staphylococcus aureus, ATCC25923; S. aureus, 1.0 × 10^8 CFU.mL^−1; 20 μL compound diluted in DMSO (1:1) per 6 mm disc; streptomycin 10 µg; mean of two repetitions
Source text: as §1, §2, §3, §4, §5, §6

[8] = test system: Escherichia coli O157: H7 NCTC 12900; experiment: agar disk diffusion test; format: cell-based; conditions: Escherichia coli, NCTC12900; E. coli O157:H7, 1.0 × 10^8 CFU.mL^−1; 20 μL compound diluted in DMSO (1:1) per 6 mm disc; streptomycin 10 µg; mean of two repetitions
Source text: as §1, §2, §3, §4, §5, §6

[9] = test system: Pseudomonas aeruginosa ATCC 15442; experiment: agar disk diffusion test; format: cell-based; conditions: Pseudomonas aeruginosa, ATCC15442; P. aeruginosa, 1.0 × 10^8 CFU.mL^−1; 20 μL compound diluted in DMSO (1:1) per 6 mm disc; streptomycin 10 µg; mean of two repetitions
Source text: as §1, §2, §3, §4, §5, §6

Q: What does the source list for CC(C)=CCC[C@@H](C)CC=O [compound 1, (R)-citronellal]?
A: activity in the DPPH assay (in words) [1]: inactive; activity in the ABTS assay (in words) [2]: inactive; effect in the FRAP assay (in words) ([3]; at the same concentrations (equal and higher than 500 mM)): did not present any effect

Q: With CC(C)=CCCC(C)(CC=O)Sc1ccc(Cl)cc1 (stereo not drawn) [3-(p-chlorophenyl)thio citronellal] as the molecule, how does the MIC (S. dysenteriae) read?
A: Its MIC is 4.2 mM (≈ 1250 µg/mL).

Q: What about the MIC (L. monocytogenes) of the same molecule?
A: The MIC was 2.1 mM (≈ 623 µg/mL).

Q: What about the MIC (E. coli) of the same molecule?
A: The MIC was 4.2 mM (≈ 1250 µg/mL).

Q: And the MIC (S. Typhimurium)?
A: The MIC was 4.2 mM (≈ 1250 µg/mL).

Q: What about the MIC (P. fluorescens) of the same molecule?
A: The MIC was 4.2 mM (≈ 1250 µg/mL).

Q: And the MIC (S. aureus)?
A: The MIC was 2.1 mM (≈ 623 µg/mL).

Q: Which results are given for CC(C)=CCC[C@@H](C)C(C=O)[Se]c1ccccc1 (stereo partly drawn) [3b, α-phenylselenocitronellal]?
A: activity in the DPPH assay (in words) [1]: inactive; activity in the ABTS assay (in words) [2]: inactive; concentrations with significant reducing power in the FRAP assay [3]: ≥ 500 mM

Q: What does the source list for [H]/N=C(/N)N[C@H]1[C@H](O)[C@@H](O)[C@H](O[C@@H]2O[C@@H](C)[C@](O)(C=O)[C@H]2O[C@@H]2O[C@@H](CO)[C@H](O)[C@@H](O)[C@@H]2NC)[C@@H](N/C(N)=N\[H])[C@@H]1O [Streptomycin, reference compound]?
A: zone of inhibition at 10 µg/disc [4]: 21 mm; zone of inhibition at 10 µg/disc [5]: 18 mm; zone of inhibition at 10 µg/disc [6]: 26 mm; zone of inhibition at 10 µg/disc [7]: 21 mm; zone of inhibition at 10 µg/disc [8]: 24 mm; zone of inhibition at 10 µg/disc [9]: 13 mm
